Patent US9682033B2, “Methods of treating postherpetic neuralgia with a topical formulation of a spiro-oxindole compound” (Teva Pharmaceuticals International GmbH, priority 2015, dated 2017)
“And” between values parts separate entries of the source, which are not always exact repeats. Equal entries are not always repeated.

Legend:
CYP3A4 [1] = experiment: In vitro CYP3A4 induction; format: in vitro ADME
3A4 (CYP3A4) = 3A4 (CYP3A4) (Homo sapiens, UniProt P08684); experiment: Reaction phenotyping with recombinant human CYP450 enzymes: CYP3A4; format: in vitro ADME
Chain of 3A4 (CYP3A4) (P08684 whole entry): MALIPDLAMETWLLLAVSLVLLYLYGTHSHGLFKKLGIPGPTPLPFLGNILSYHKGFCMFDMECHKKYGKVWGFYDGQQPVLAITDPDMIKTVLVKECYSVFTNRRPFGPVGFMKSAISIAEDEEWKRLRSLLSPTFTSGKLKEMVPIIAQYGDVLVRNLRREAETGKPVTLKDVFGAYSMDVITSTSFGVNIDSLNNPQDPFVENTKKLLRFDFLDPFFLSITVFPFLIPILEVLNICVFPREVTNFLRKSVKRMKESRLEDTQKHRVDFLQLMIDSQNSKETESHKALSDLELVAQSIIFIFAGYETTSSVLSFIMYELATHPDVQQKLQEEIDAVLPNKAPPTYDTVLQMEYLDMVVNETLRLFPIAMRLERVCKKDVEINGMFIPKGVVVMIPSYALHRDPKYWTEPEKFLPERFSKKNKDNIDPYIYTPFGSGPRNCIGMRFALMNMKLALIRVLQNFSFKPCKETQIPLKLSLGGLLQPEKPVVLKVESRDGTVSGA

CYP3A4 [2] = experiment: Drug-drug interaction study in dogs, oral spiro-oxindole compound with iv midazolam as CYP3A4 substrate; format: in vivo; settings: oral administration
[3] = Protein binding in rat serum; format: in vitro ADME
[4] = ADME study in the minipig after repeated daily dermal dosing (Biological Example 1); format: in vivo, Göttingen minipig; settings: for mean tissue radioactivity concentration / total radioactivity in tissue: 24 h after [^14C] dermal dose
From the text: On the day prior to the first dermal dose, the dorsum and flanks of each animal were carefully clipped using electric clippers and shaved using an electric rotary head shaver (Phillips). Clipping and shaving was as close as possible to the skin, whilst avoiding damage to the dose site. […] The corners of the treatment area (equivalent to about 6% body surface area, 11 cm×19 cm-12 cm×22 cm) were marked using an indelible pen. The process of hair removal was repeated periodically during the dose administration period as necessary.

CYP3A4 [5] = molecular target: CYP3A4 (Homo sapiens, UniProt P08684); experiment: Drug-drug interaction study in healthy subjects: midazolam (CYP3A4 substrate) pharmacokinetics (Biological Example 5); settings: human, in vivo
Chain of CYP3A4 (Homo sapiens, UniProt P08684) (P08684 whole entry): as above
From the text: (§1) This was a single center, open-label, 1-sequence drug-drug interaction study in 32 healthy adult male and female subjects. The study consisted of a 28-day screening period, a 10-day inpatient treatment period, and a follow-up visit. Subjects meeting the study inclusion/exclusion requirements were admitted to the clinical research unit on day −1 and were confined until day 10.
(§2) Blood samples were collected for the assessment of the pharmacokinetics of midazolam and omeprazole.
(§3) The primary pharmacokinetic endpoints were the geometric mean ratios (90% confidence intervals [CIs]) for Cmax, AUC0-t, and AUC0-inf for midazolam and omeprazole on day 9 versus day 1.
(§4) Blood samples were collected for the assessment of the pharmacokinetics of the major metabolites of midazolam (1-OH-midazolam) and omeprazole (5-OH-omeprazole), and for the spiro-oxindole compound. Further secondary pharmacokinetic variables included Cmax, tmax, AUC0-t, AUC0-inf, CL/F, λz, t1/2, and % AUCext for 1-OH-midazolam and 5-OH-omeprazole, on days 1 and 9, and Cmax, morning predose concentrations (Ctrough), average plasma concentration over the dosing interval (Cave), and area under the plasma concentration-time curve over the dosing interval (AUC0-τ) were presented for the spiro-oxindole compound.
(§5) Descriptive statistics (n, mean, geometric mean, standard deviation [SD], % CV, median, minimum, and maximum) were used to summarize plasma midazolam, omeprazole and their metabolites, and the spiro-oxindole compound concentration for all subjects overall at each scheduled time point. Descriptive statistics (as noted above) were also used to summarize plasma omeprazole, 5-OH-omeprazole, and the spiro-oxindole compound concentration for all subjects overall by CYP2C19 genotype at each scheduled time point. Pharmacokinetic parameters were derived by noncompartmental analysis. Descriptive statistics (as noted above) were used to summarize the calculated pharmacokinetic parameters for midazolam, omeprazole and their metabolites, and the spiro-oxindole compound by treatment for all subjects. Descriptive statistics (as noted above) were also used to summarize the calculated pharmacokinetic parameters for omeprazole, 5-OH-omeprazole, and the spiro-oxindole compound by treatment and CYP2C19 genotype. Plots of geometric mean and individual plasma concentrations and of select pharmacokinetic parameters for midazolam, omeprazole and their metabolites and the spiro-oxindole compound at select sampling times were provided. Additionally, plots of individual select pharmacokinetic parameters by CYP2C19 phenotype for omeprazole at select time points were provided.

[6] = Protein binding in dog plasma; format: in vitro ADME
rat bone marrow = experiment: In vivo rat bone marrow micronucleus test (GLP)
From the text: (§6) The spiro-oxindole compound was not genotoxic in the standard battery of genotoxicity tests (GLP), including a bacterial reverse mutation assay, an in vitro chromosome aberration assay in cultured human lymphocytes, and an in vivo rat bone marrow micronucleus test.

[7] = system: cultured human lymphocytes; experiment: In vitro chromosome aberration assay in cultured human lymphocytes (GLP); format: cell-based
From the text: as §6

CYP450 2C19 (CYP2C19) = CYP450 2C19 (CYP2C19) (Homo sapiens, UniProt P33261); experiment: Reaction phenotyping with recombinant human CYP450 enzymes: CYP2C19; format: in vitro ADME
Chain of CYP450 2C19 (CYP2C19) (P33261 whole entry): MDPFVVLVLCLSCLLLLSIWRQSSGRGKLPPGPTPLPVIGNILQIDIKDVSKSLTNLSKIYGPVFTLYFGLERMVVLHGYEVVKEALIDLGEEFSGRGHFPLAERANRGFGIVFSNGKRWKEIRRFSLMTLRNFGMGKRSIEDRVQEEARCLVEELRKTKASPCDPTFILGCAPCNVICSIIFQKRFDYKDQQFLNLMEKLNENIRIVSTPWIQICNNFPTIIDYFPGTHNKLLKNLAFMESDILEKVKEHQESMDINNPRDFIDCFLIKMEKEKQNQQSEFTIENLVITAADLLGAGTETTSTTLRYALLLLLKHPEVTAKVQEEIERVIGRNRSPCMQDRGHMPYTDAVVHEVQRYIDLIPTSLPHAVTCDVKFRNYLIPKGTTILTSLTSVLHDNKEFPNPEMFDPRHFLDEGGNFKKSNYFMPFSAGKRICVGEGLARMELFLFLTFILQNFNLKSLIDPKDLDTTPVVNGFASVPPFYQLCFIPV

[8] = system: streptozotocin-induced neuropathic pain model; experiment: Streptozotocin-induced neuropathic pain model, mechanical allodynia (paw withdrawal threshold); format: in vivo, rats; settings: topical, diabetic neuropathic pain model
From the text: Topical 4% Test Pharmaceutical Composition was compared with lidocaine and diclofenac for relief of mechanical allodynia in the streptozotocin-induced neuropathic pain model in rats.

NaV1.7 = NaV1.7 (Homo sapiens, UniProt Q15858); experiment: In vitro electrophysiological studies: block of NaV1.7; format: biochemical; settings: fold greater for the inactivated state
Chain of NaV1.7 (Q15858 whole entry): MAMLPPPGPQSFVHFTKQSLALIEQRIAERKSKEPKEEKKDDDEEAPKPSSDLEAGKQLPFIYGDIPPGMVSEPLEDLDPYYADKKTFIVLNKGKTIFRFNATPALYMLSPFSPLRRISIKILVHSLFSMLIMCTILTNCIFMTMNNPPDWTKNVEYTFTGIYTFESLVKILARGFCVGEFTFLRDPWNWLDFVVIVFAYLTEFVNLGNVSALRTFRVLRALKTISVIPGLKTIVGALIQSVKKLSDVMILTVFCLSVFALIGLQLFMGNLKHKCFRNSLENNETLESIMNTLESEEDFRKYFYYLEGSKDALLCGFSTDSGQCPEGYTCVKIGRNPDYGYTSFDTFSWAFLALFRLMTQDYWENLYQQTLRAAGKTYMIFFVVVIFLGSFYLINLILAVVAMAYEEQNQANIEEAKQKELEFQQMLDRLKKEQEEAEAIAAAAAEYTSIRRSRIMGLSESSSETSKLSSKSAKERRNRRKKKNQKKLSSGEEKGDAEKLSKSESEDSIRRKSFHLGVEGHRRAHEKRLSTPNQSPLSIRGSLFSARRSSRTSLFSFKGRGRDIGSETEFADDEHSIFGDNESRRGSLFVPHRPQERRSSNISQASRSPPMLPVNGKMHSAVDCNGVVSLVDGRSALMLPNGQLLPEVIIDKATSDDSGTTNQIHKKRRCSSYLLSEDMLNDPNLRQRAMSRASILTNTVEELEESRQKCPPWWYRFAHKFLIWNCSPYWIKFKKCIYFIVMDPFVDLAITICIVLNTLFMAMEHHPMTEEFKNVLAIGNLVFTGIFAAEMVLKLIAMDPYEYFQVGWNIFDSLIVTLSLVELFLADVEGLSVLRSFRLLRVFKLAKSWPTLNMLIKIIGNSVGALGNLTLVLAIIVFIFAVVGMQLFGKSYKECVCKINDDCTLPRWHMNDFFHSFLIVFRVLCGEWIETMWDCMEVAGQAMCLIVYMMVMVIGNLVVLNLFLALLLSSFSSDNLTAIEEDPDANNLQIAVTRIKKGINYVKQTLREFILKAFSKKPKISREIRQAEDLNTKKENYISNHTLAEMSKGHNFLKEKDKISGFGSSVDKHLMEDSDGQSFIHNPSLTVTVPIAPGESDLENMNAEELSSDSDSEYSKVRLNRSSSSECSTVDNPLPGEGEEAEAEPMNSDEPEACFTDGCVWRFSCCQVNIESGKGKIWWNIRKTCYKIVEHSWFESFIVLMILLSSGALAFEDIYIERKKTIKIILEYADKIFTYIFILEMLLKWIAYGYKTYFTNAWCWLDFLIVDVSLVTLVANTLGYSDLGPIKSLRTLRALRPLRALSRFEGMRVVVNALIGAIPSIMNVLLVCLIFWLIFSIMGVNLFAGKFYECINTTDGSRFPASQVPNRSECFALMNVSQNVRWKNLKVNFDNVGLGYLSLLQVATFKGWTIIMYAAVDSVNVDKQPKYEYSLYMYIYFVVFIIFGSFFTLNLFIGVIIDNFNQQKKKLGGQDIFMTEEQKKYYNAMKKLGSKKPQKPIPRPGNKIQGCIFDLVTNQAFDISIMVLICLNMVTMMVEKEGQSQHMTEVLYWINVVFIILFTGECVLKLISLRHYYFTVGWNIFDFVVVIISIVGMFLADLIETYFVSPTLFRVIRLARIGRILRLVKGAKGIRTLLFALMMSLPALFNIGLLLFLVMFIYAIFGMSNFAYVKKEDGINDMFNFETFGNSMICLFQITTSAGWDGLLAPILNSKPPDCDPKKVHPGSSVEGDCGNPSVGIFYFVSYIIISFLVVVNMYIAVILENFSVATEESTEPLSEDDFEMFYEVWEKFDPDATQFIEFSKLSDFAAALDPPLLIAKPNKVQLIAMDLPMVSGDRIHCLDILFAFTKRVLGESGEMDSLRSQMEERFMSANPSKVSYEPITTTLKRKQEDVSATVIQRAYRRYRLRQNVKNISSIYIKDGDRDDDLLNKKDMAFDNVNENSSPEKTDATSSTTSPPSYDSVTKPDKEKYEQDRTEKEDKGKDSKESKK
From the text: NaV1.7 is expressed primarily in the peripheral nervous system in both sensory and sympathetic neurons (Raymond, C. K., et al., op. cit.). Loss-of-function mutations in SCN9A (the gene encoding the alpha subunit of the NaV1.7 sodium channel) cause a human condition known as congenital indifference to pain characterized by an inability to perceive pain (Cox, J. J., et al., Nature (2006), 444:894-98; Goldberg, Y. P., et al., Clin Genet (2007), 71:311-9). Gain-of-function mutations in SCN9A are associated with inherited erythromelalgia (IEM) (Drenth, J. P., et al., J Invest Dermatology (2005), 124:1333-8), which is characterized by spontaneous or easily evoked severe pain. Furthermore, up to 29% of biopsy-proven cases of idiopathic small-fiber neuropathy manifesting mainly as distal severe pain (Faber, C. G., et al., Ann Neurol (2012), 71:26-39) are associated with gain-of-function NaV1.7 channel mutations.

CYP2C19 = experiment: clinical; settings: human, in vivo
From the text: as §1, §2, §3, §4, §5

## O=C1N(Cc2ccc(C(F)(F)F)o2)c2ccccc2[C@]12COc1cc3c(cc12)OCO3 [spiro-oxindole compound, (S)-1′-{[5-(trifluoromethyl)furan-2-yl]methyl}spiro[furo[2,3-f][1,3]benzodioxole-7,3′-indol]-2′(1′H)-one]
CYP3A4 [1]
  induction of CYP3A4: may also be a strong inducer of CYP3A4 with an activation potency similar to rifampicin
3A4 (CYP3A4)
  contribution to spiro-oxindole compound metabolism: major contributors
CYP3A4 [2]
  spiro-oxindole compound plasma concentrations without evidence of a DDI: up to 752 ng/mL and ≤ 1.8 μM
CYP3A4 [2]; plasma concentrations up to 752 ng/mL (i.e., 1.8 μM)
  drug-drug interaction with iv midazolam (CYP3A4 substrate): no evidence of a DDI
[3]
  protein bound: 99.6%
[4]; male, Göttingen, minipig, plasma, topical or ocular, 70 mg ointment/kg, minipigs, 21 days of repeated dermal dosing, read-out: mean maximum observed concentration (Cmax) in plasma
  Cmax: 15 ng/mL
[4]; minipig, bone marrow
  mean tissue radioactivity concentration: 154 ng equivalents spiro-oxindole compound/g
[4]; minipig, fat (abdominal / white)
  mean tissue radioactivity concentration: 273 ng equivalents spiro-oxindole compound/g
[4]; minipig, fat (brown)
  mean tissue radioactivity concentration: 100 ng equivalents spiro-oxindole compound/g
[4]; minipig, gall bladder contents
  mean tissue radioactivity concentration: 4870 ng equivalents spiro-oxindole compound/g
[4]; minipig, heart
  total radioactivity in tissue: 18.5 ng equiv spiro-oxindole compound/g
[4]; minipig, liver
  total radioactivity in tissue: 74.9 ng equiv spiro-oxindole compound/g
[4]; minipig, muscle underlying the dose site
  mean tissue radioactivity concentration: 142 ng equivalents spiro-oxindole compound/g
[4]; minipig, skin from the dose site
  mean tissue radioactivity concentration: 25500 ng equivalents spiro-oxindole compound/g
[4]; minipig, skin remote from the dose site
  mean tissue radioactivity concentration: 111 ng equivalents spiro-oxindole compound/g
[4]; minipigs, repeated daily dermal dosing of 8% ointment
  systemic exposure (in words): low systemic exposure
CYP3A4 [5]
  effect on midazolam pharmacokinetics (in words): no relevant effect on midazolam pharmacokinetics
[6]
  protein bound: 98.3%
Rat bone marrow
  genotoxicity: not genotoxic
[7]
  genotoxicity: not genotoxic
CYP450 2C19 (CYP2C19)
  contribution to spiro-oxindole compound metabolism: major contributors
[8]
  efficacy compared with 5% lidocaine: superior efficacy to 5% lidocaine
NaV1.7
  potency of block against NaV1.7, inactivated state compared with resting state: approximately 220 fold
CYP2C19; both
  Geometric LS mean ration (%) (test/reference), omeprazole AUC0-inf: 105.751%
  Geometric LS mean ration (%) (test/reference), omeprazole AUC0-t: 101.553%
  Geometric LS mean ration (%) (test/reference), omeprazole Cmax: 98.939%
  effect on systemic exposure to 5-OH-omeprazole (in words): no relevant effect on systemic exposure to 5-OH-omeprazole
CYP2C19
  effect on omeprazole pharmacokinetics (in words): no relevant effect on omeprazole pharmacokinetics
